Data as given in patent US7090846B2 (priority 1999, dated 2006).

How the values were obtained:
MCF-7, or PC3 cells = conditions: tumor cell cultures, in vitro; for inhibition on the colony formation: serial dilutions, vs untreated control; for comparison among the conjugates: inhibition on the colony formation: ranking among tested conjugates
Method: (§1) Cell Lines Used in the Experiments: • P388 mouse lymphocytic leukemia cell line, originated from Arthur D. Little Inc., Cambridge, Mass., USA, in vitro established in the National Institute of Oncology, Budapest, Hungary (Cancer Treat. Rep. 1986; 70: 279–284); • MCF-7 humane breast cancer cell line, originated from American Type Culture Collection; • PC3 humane prostate cancer cell line, originated from American Type Culture Collection;
MCF-7, or PC3 cells were plated into petri dishes, then in adequate medium and conditions, were incubated the cells with serial dilutions of the different polycation bioconjugates, prepared according to the invention. The colonies, consisting minimum 30 cells were then counted and the obtained values of three parallel petri dishes were averaged. Relative cloning efficiency was calculated by taking the control values as 100 per cent. (Cancer Detection and Prevention, 20(2): 146–152, 1996).

[1] = test system: tumor cell cultures (P388, MCF-7, PC3); conditions: in vitro; for inhibition on the cell proliferation: serial dilutions, vs untreated control; for comparison among the conjugates: inhibition on the cell proliferation: ranking among tested conjugates
Description: as §1
Sulforodamine B (SRB) assay: approximately one to two thousand cells were put into each well of the special, small plastic tray (micro-well-plates). The cells were incubated in adequate medium and conditions and after adhering to the surface, were treated with serial dilutions of the different polycation bioconjugates, prepared according to the invention. At the end of the experiment the cells were fixed, stained with SRB, and the optical density, which is in direct proportion to the cell proliferation, was read in a CLS 962 ELISA microplate reader. Relative inhibition of proliferation was calculated by taking the control values as 100 per cent. (Cancer Detection and Prevention, 20(2): 146–152, 1996).
Cell counting method, with Neubauer-type chamber: in suspension cultures of exponentially growing cells, which were in adequate medium and conditions, were treated with serial dilutions of the different polycation bioconjugates, prepared according to the invention, and 24- and 48 hours following the treatment the cells were stained with tripan-blue, the treated and control cells were counted in a modified Neubauer-type hemocytometer chamber. Relative inhibition of proliferation was calculated by taking the control values as 100 per cent.

[2] = test system: transplantable rodent tumors (P-388 lymphoid leukemia, S-180 sarcoma); conditions: mouse, in vivo
Description: The tumor growth inhibitory effect of the polycation bioconjugates was studied on the following transpalatable rodent tumors: • P-388 lymphoid leukemia cells, originated from Cambridge, Mass., USA, were transplanted i.p. and s.c. into animals: BDF1 inbred male mice, weighing 22–24 g, specified pathogen free (SPF) breedings; • S-180 sarcoma, originated from Chester Beatty I., London, were transplanted s.c. into animals: BDFI inbred male mice, weighing 22–24 g, specified pathogen free (SPF) breedings.

“cholesterol-hemisuccinyl-poly-(ε)-L-lysine-hydrogen-bromide” was tested. Which “inhibition on the colony formation” value (MCF-7, or PC3 cells) did it give?
The value was “dose dependent inhibition”.

What about the “inhibition on the cell proliferation” value [1] of the same substance?
Its value is “dose dependent inhibition”.

What about the “inhibitory effect on transplantable rodent tumors (mean tumor volumes, tumor growth curves)” value [2] of the same substance?
The value was “significant inhibitory effect”.

What does the source list for “palmitoyl-poly-(ε)-L-lysine-hydrogen-bromide”?
comparison among the conjugates: inhibition on the colony formation (MCF-7, or PC3 cells): most effective inhibition; inhibition on the colony formation (MCF-7, or PC3 cells): dose dependent inhibition; comparison among the conjugates: inhibition on the cell proliferation [1]: most effective inhibition; inhibition on the cell proliferation [1]: dose dependent inhibition; inhibitory effect on transplantable rodent tumors (mean tumor volumes, tumor growth curves) [2]: significant inhibitory effect

For “poly-(ε)-L-lysine-cisplatin-hydrogen-bromide”, which “comparison among the conjugates: inhibition on the colony formation” value (MCF-7, or PC3 cells) is on record?
Its value is “most effective inhibition”.

What about the “inhibition on the colony formation” value (MCF-7, or PC3 cells) of the same substance?
The value was “dose dependent inhibition”.

And the “comparison among the conjugates: inhibition on the cell proliferation” value [1]?
The value was “most effective inhibition”.

What about the “inhibition on the cell proliferation” value [1] of the same substance?
The value was “dose dependent inhibition”.
